Results: patent US11738033B2, “Adjunctive therapy with 25-hydroxyvitamin D and articles therefor” (priority 2014, dated 2023)
Like-named read-outs stand apart in the source and are kept apart here.

What was measured:
[1] = patients with bone metastases; cited from earlier work
[2] = Efficacy study in osteoporosis patients treated with an antiresorptive agent (denosumab); type: in vivo, human; settings: for incidence of hypocalcemia and severity of secondary hyperparathyroidism: once stable dosing has been achieved, denosumab-treated
[3] = Efficacy study in prostate cancer patients treated with denosumab; type: in vivo, human; settings: for incidence of hypocalcemia and severity of SHPT and hypercalcemia: once stable dosing has been achieved, denosumab-treated
[4] = Efficacy study in breast cancer patients treated with denosumab; type: in vivo, human; settings: for incidence of hypocalcemia and severity of secondary hyperparathyroidism: once stable dosing has been achieved, denosumab-treated
[5] = type: in vivo, human; settings: dose escalation phase, 30 to 300 mcg daily
Description: At the start of the study, all patients have plasma PTH greater than […] as evidence of SHPT, serum calcium less than 9.8 mg/dL, spot urine Ca:Cr ratio≤0.25 (≤250 mg/g creatinine) and an estimated glomerular filtration rate greater than 15 mL/min/1.73 m^2. […] Denosumab or zoledronic acid are administered according to the typical standard of care for each patient's condition.
The 52-week study consists of a 40 week dose escalation phase followed by a 12-week maintenance phase. At the end of the maintenance phase, there is a two-week follow up phase. At the start of the study, all patients receive an initial daily dose of 30 mcg 25-hydroxyvitamin D3, which is increased at four-week intervals over the course of the dose escalation phase up to a maximum daily dose of 300 mcg. The daily dose achieved by the end of the dose escalation study is the daily dose administered during the maintenance phase.
Blood samples are collected at 2-week intervals for monitoring serum levels of calcium and phosphorus. […] Serum vitamin D metabolites and markers of bone metabolism, immune function, and tumor burden are measured at the beginning of the dose escalation phase and at the beginning and end of the maintenance phase. […] The genotype of vitamin D binding protein is determined for each subject at the beginning of the dose escalation phase.

[6] = Efficacy study in patients with metastatic bone disease receiving an antiresorptive agent; type: in vivo, human; settings: with denosumab or zoledronic acid
Description: Denosumab or zoledronic acid are administered according to the typical standard of care for each patient's condition. […] Samples are collected at monthly intervals for monitoring serum and urine levels of calcium, plasma levels of PTH and serum total 25-hydroxyvitamin D. Serum markers of tumor burden and bone metabolism, as well as cancer progression are assessed at 3-month intervals.

[7] = Efficacy study in patients with metastatic bone disease, prevention of SREs; type: in vivo, human; settings: with denosumab or zoledronic acid
Description: Denosumab or zoledronic acid are administered according to the typical standard of care for each patient's condition. Patients are monitored for SREs, including by appropriate non-invasive imaging techniques, and serum markers of tumor burden and bone metabolism at 3-month intervals, and at monthly intervals for serum and urine calcium levels and plasma PTH. Cancer progression is monitored at quarterly intervals.

[8] = after 24 months, with denosumab, vs denosumab and Vitamin D3
[9] = 6-month study, compared to placebo
[10] = compared to antiresorptive plus placebo
[11] = 24-month studies, compared to placebo

Structure (SMILES): O=P(O)(O)C(O)(Cn1ccnc1)P(=O)(O)O [zoledronic acid]
- patients who developed hypocalcemia [1]: 39%

Structure (SMILES): C=C1CC[C@H](O)C/C1=C/C=C1\CCC[C@]2(C)[C@@H]([C@H](C)CCCC(C)C)CC[C@@H]12 [Vitamin D3, cholecalciferol]
- incidence of hypocalcemia and severity of secondary hyperparathyroidism [2]: occur more frequently
- incidence of hypocalcemia and severity of SHPT and hypercalcemia [3]: more frequently
- incidence of hypocalcemia and severity of secondary hyperparathyroidism [4]: occur more frequently

Structure (SMILES): C=C1CC[C@H](O)C/C1=C/C=C1\CCC[C@]2(C)[C@@H]([C@H](C)CCCC(C)(C)O)CC[C@@H]12 [25-hydroxyvitamin D3]
- increases in bone mineral density [2, 8]: larger increases
- serum PTH levels [2, 8]: lower
- incidence of hypocalcemia and severity of secondary hyperparathyroidism [2]: markedly reduced
- incidence of hypocalcemia [3, 8]: significantly lower
- increases in bone mineral density [3, 8]: larger increases
- serum PTH levels [3, 8]: lower
- serum levels of 25-hydroxyvitamin D3 [3, 8]: higher and more consistent
- time to first post-treatment SRE [3, 8]: significantly delayed
- incidence of hypocalcemia and severity of SHPT and hypercalcemia [3]: markedly reduced
- incidence of hypocalcemia [4, 8]: significantly lower
- increases in bone mineral density [4, 8]: larger increases
- serum PTH levels [4, 8]: lower
- time to additional bone metastasis [4, 8]: significantly delayed
- incidence of hypocalcemia and severity of secondary hyperparathyroidism [4]: markedly reduced
- plasma PTH [5]: decreases
- increase in serum calcium [6, 9]: greater increase
- plasma PTH [6, 9]: decrease
- risk of hypocalcemia [6, 9]: reduced risk
- time to additional bone metastasis [6, 10]: increased delay
- increase in serum calcium [7, 11]: greater increase
- plasma PTH [7, 11]: decrease
- risk of hypocalcemia [7, 11]: reduced risk
- time to additional bone metastasis or SRE [7, 10]: increased delay
